Experimental findings from ChEMBL document CHEMBL4038300, “Return of D4 Dopamine Receptor Antagonists in Drug Discovery” (J Med Chem, 2017) are described below.

As usually defined, the Ki is a dissociation constant, usually derived from enzyme kinetics or from competition with a known ligand. Low readings indicate higher affinity, high ones lower affinity. What is called bioavailability is the share of a dose that reaches the circulation, judged against a reference dose that is usually intravenous. Low readings indicate little systemic uptake, high ones much systemic uptake. By inhibition is commonly meant how much of the control response was suppressed.

One series concerns the target T1, D(4) dopamine receptor (Homo sapiens, UniProt P21917).
T1 sequence (P21917 whole entry): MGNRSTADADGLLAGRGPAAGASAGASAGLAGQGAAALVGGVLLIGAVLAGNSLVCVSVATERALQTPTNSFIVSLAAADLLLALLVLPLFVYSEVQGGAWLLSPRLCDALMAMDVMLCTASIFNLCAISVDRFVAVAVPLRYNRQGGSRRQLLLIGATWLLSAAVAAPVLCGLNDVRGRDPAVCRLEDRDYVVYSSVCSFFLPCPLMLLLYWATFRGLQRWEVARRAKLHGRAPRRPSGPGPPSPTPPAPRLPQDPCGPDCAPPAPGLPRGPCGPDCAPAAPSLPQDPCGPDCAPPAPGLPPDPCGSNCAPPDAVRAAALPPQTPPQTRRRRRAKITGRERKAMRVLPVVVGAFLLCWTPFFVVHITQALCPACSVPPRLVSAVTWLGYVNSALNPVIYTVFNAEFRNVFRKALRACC
Briefly: Inhibition of human dopamine D4 receptor.

Series [1] deals with T2, D(3) dopamine receptor (Homo sapiens, UniProt P35462). Briefly: Inhibition of human dopamine D3 receptor.
In the next series the target is D(2) dopamine receptor (Homo sapiens, UniProt P14416). Kind of series: Inhibition of human dopamine D2 receptor.
Series [2] in a line: Oral bioavailability in rat at 20 mg/kg. The note with it: in vivo. Format: ADME, organism-based.
A further series has as its target D(1A) dopamine receptor (Homo sapiens, UniProt P21728). Briefly: Inhibition of dopamine D1 receptor (unknown origin) at 10 uM.
In another series the target is Histamine H1 receptor (Homo sapiens, UniProt P35367). Kind of series: Inhibition of histamine H1 receptor (unknown origin). The note with it: concentration not given here.
For series [3], the target named is Adrenergic receptor alpha-1 (Homo sapiens) (UniProt P35348+P25100+P35368). Kind of series: Inhibition of alpha1 adrenergic receptor (unknown origin). The note with it: concentration not given here.
Series [4] concerns the target Neuropeptide Y receptor type 2 (Homo sapiens) (UniProt P49146). Briefly: Inhibition of NPY2 receptor (unknown origin). The note with it: concentration not given here.
Series [5] has as its target Histamine H3 receptor (Homo sapiens) (UniProt Q9Y5N1). Briefly: Inhibition of histamine H3 receptor (unknown origin). The following applies: concentration not given here.
Series [6] deals with 5-hydroxytryptamine receptor 2C (Homo sapiens) (UniProt P28335). Briefly: Inhibition of serotonin 5-HT2C receptor (unknown origin). The note with it: concentration not given here.
A further series addresses D(1B) dopamine receptor (Homo sapiens, UniProt P21918). Briefly: Inhibition of dopamine D5 receptor (unknown origin) at 10 uM.
The target in series [7] is Neuropeptide Y receptor type 1 (Homo sapiens) (UniProt P25929). Kind of series: Inhibition of NPY1 receptor (unknown origin). The note with it: concentration not given here.
For series [8], the target named is Glutamate [NMDA] receptor (Homo sapiens) (UniProt Q05586+Q12879+Q13224+O15399+O60391+Q14957+Q8TCU5). Kind of series: Inhibition of NMDA receptor (unknown origin). The note with it: concentration not given here.
Series [9] deals with T2, D(3) dopamine receptor. Briefly: Inhibition of dopamine D3 receptor (unknown origin) at 10 uM.
The nature of series [10]: Inhibition of human dopamine D4.7 receptor.
Series [11] can be described thus: Inhibition of human dopamine D4.4 receptor.
Series [12] in a line: Inhibition of human dopamine D4.2 receptor.
The target of series [13] is Adrenergic receptor alpha-2 (Homo sapiens) (UniProt P08913+P18825+P18089). Kind of series: Inhibition of alpha2 adrenergic receptor (unknown origin). The note with it: concentration not given here.
The species entered for another series is Homo sapiens. Briefly: Inhibition of beta-adrenergic receptor (unknown origin). The following applies: concentration not given here.
The target in series [14] is 5-hydroxytryptamine receptor 2A (Homo sapiens, UniProt P28223). Kind of series: Inhibition of serotonin 5-HT2 receptor (unknown origin). The note with it: concentration not given here.
Chain of 5-hydroxytryptamine receptor 2A (P28223 whole entry): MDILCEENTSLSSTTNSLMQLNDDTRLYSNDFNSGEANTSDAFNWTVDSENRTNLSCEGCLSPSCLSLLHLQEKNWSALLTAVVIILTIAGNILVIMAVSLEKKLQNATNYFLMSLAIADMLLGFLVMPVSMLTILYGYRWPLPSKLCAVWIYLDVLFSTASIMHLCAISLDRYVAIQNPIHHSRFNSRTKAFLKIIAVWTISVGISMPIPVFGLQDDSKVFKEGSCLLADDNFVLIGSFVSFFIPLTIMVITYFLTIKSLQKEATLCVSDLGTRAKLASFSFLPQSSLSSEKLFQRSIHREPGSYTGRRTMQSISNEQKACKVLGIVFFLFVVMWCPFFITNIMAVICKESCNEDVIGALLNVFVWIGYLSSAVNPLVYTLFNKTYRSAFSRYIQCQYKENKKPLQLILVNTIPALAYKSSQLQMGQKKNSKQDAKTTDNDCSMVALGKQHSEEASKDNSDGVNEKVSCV

T2 sequence (P35462 whole entry): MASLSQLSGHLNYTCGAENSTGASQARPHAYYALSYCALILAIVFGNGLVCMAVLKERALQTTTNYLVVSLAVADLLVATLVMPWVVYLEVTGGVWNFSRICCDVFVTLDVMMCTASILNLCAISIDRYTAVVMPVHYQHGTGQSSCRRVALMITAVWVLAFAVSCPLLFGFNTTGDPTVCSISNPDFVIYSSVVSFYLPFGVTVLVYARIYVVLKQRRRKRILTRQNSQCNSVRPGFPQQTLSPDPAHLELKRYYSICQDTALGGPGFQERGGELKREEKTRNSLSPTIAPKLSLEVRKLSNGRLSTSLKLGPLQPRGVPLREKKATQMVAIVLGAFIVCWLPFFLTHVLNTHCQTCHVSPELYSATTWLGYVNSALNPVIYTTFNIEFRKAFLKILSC
Chain of Histamine H3 receptor (Homo sapiens) (Q9Y5N1 whole entry): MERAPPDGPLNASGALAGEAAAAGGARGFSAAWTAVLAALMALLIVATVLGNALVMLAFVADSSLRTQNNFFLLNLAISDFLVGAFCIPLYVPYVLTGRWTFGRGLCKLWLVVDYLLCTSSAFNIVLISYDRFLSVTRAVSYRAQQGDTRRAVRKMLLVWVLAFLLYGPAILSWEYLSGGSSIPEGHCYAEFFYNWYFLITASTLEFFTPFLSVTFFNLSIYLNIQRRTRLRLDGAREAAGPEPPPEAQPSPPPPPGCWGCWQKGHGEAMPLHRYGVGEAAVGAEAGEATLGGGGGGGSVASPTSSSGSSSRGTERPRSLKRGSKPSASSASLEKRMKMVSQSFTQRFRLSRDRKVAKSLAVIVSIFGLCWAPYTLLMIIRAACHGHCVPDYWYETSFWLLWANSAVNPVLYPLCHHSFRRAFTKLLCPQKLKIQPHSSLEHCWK
Chain of 5-hydroxytryptamine receptor 2C (Homo sapiens) (P28335 whole entry): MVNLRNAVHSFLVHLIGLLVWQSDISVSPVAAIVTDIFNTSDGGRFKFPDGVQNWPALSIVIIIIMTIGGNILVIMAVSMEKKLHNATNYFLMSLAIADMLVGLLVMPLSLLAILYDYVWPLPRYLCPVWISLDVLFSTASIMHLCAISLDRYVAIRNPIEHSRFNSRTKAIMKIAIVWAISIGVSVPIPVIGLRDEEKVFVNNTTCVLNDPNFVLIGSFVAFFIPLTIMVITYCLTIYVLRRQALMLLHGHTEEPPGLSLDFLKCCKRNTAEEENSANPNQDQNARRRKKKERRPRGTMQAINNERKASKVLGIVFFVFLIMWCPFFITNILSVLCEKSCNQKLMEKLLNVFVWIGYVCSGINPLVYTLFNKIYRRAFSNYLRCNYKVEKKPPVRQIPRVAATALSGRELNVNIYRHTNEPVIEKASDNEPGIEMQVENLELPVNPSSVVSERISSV
Chain of D(1A) dopamine receptor (P21728 whole entry): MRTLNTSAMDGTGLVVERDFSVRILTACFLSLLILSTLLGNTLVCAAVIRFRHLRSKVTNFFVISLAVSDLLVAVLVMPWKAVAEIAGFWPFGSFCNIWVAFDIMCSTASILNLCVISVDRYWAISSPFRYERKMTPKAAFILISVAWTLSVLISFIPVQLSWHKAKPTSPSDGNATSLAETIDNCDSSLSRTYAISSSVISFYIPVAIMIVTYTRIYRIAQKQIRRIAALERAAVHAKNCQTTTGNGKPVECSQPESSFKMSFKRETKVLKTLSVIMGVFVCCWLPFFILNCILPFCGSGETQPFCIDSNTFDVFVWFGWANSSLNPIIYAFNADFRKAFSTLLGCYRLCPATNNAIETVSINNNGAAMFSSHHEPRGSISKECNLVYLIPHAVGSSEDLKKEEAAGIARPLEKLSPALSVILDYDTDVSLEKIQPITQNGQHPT
Chain of Neuropeptide Y receptor type 1 (Homo sapiens) (P25929 whole entry): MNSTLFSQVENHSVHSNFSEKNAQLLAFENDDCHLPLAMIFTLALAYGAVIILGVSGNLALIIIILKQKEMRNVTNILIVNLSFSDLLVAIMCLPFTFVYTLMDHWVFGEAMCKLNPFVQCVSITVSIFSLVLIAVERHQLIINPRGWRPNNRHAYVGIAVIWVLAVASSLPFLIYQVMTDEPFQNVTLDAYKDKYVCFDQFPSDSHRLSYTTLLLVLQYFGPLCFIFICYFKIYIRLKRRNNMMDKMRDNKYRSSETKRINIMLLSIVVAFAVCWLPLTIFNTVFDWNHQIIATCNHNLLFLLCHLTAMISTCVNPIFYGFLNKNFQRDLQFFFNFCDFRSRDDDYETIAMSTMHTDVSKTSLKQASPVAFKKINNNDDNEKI
Chain of Neuropeptide Y receptor type 2 (Homo sapiens) (P49146 whole entry): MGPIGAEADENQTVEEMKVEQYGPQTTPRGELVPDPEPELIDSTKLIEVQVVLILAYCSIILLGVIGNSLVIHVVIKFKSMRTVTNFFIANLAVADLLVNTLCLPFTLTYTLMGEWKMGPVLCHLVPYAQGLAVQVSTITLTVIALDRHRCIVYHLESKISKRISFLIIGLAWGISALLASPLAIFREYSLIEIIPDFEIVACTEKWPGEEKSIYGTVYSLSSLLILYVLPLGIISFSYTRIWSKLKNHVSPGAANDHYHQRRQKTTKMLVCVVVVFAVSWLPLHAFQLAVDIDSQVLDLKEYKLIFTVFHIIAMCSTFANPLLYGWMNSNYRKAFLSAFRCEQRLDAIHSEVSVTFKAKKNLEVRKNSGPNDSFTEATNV
Chain of D(2) dopamine receptor (P14416 whole entry): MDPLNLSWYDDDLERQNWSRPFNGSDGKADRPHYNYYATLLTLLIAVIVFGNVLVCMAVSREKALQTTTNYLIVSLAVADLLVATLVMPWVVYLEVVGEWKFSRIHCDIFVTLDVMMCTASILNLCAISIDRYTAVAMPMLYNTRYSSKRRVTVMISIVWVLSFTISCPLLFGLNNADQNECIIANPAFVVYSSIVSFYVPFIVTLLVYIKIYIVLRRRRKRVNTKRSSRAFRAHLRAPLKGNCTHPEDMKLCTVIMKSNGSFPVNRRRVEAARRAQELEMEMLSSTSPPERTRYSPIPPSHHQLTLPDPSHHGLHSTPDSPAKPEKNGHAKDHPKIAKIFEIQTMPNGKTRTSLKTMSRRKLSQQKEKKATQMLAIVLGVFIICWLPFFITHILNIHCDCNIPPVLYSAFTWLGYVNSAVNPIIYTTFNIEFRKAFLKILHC
Chain of D(1B) dopamine receptor (P21918 whole entry): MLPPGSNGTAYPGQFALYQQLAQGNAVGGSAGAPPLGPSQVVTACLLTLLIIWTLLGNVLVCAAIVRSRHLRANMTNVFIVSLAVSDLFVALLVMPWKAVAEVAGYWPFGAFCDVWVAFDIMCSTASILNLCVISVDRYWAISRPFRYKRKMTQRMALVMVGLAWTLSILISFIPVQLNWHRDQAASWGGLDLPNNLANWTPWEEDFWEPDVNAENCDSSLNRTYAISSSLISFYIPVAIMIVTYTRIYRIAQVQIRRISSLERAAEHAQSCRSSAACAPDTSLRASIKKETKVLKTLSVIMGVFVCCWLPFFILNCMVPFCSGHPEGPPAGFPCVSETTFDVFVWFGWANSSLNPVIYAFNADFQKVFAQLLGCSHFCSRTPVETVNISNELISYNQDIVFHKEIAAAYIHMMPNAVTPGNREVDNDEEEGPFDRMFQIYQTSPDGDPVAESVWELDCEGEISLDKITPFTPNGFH
Chain of Histamine H1 receptor (P35367 whole entry): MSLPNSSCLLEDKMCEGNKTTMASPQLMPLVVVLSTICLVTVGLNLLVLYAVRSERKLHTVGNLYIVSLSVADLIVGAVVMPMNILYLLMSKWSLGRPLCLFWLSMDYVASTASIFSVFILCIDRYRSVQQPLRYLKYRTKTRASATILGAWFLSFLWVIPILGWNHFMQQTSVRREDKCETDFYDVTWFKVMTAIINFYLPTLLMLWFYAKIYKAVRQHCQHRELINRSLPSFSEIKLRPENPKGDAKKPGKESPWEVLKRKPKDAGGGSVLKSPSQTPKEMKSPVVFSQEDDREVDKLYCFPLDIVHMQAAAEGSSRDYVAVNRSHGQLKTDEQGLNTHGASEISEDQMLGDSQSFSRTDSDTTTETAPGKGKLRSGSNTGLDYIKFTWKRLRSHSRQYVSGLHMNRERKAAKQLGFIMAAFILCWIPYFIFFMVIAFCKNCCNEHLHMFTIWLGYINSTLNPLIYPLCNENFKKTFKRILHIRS

`c1ccc(OCC2CN(Cc3c[nH]c4ccccc34)CCO2)cc1` (stereo not given): the inhibitory constant (Ki) was 5.6 nM on D(4) dopamine receptor, 1480 nM on D(3) dopamine receptor [1] and 400 nM at D(2) dopamine receptor. The compound also had a bioavailability in series [2] above 40%.

Regarding `c1ccc(-c2nc(CN3CCN(c4ncccn4)CC3)c[nH]2)cc1`, the inhibition (at D(1A) dopamine receptor; against Histamine H1 receptor; in series [3]; in series [4]; in series [5]; in [6]) was below 50% in each case. The inhibition (against D(1B) dopamine receptor; in series [7]; in [8]; on D(3) dopamine receptor [9]; in [13]; in the series listed under Homo sapiens) was below 50% throughout. In series [14], this compound showed an inhibition below 50%. For the same compound, the Ki in series [10] was determined as 2.1 nM; in [11], 2.2 nM; in series [12] it was 4.2 nM.
